Measured values taken from article PMC9976286, “Combination of In Silico and In Vitro Screening to Identify Novel Glutamate Carboxypeptidase II Inhibitors” (Journal of Chemical Information and Modeling, 2023).

Target: T1, Recombinant human GCPII (Homo sapiens, UniProt Q04609)
T1 construct: made in house
Assay: In vitro GCPII inhibition assay, fluorescence-based, RP-HPLC readout (screening at 20 μM and IC50)
Type: biochemical
Settings: compound at 20 μM; 100 nM fluorescein-labeled Glu-Glu dipeptide substrate
Method: The inhibitory potency of the selected compounds against GCPII was determined using a fluorescence-based assay developed in-house. Recombinant human GCPII purified as described previously[40],[41] (final concentration 0.02 nM) was preincubated with 20 μM test compound for the screening in 50 mM Tris-HCl, 150 mM NaCl, 0.001% C12E8 at 37 °C for 10 min. The reaction was initiated by the addition of 100 nM Glu-Glu dipeptide labeled with fluorescein (substrate)[42] in a total volume of 50 μL. Following 15 min incubation, the reaction was terminated by the addition of 5 μL of 0.1% TFA in 5% acetonitrile. […] The data were fitted using the GraphPad Prism software, and IC50 values were calculated from the inhibition curves of two independent experiments using a nonlinear analysis protocol.

T1 sequence (Q04609 whole entry): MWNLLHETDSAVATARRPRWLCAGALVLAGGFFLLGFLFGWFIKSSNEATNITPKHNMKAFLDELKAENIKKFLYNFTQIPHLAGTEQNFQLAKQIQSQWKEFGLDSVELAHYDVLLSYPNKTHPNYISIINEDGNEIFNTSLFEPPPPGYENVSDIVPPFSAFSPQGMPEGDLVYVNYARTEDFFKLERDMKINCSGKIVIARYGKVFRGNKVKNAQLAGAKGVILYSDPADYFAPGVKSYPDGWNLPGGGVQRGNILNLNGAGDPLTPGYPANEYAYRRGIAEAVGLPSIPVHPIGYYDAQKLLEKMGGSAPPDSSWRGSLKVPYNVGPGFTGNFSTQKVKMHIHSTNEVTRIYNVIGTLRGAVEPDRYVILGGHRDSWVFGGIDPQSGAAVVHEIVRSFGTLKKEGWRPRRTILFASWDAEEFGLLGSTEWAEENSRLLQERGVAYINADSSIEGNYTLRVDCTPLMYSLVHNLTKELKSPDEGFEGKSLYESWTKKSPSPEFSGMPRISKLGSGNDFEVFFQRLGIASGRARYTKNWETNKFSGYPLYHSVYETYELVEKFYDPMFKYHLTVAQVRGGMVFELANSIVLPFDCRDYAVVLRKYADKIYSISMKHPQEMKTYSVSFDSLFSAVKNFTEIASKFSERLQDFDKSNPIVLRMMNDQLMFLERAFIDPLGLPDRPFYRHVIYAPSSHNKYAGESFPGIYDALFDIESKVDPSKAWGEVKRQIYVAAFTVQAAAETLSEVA

Inhibition [%] of GCPII activity [%] | SMILES
29 | Nc1cc(N)c(C(=O)O)cc1C(=O)O [Compound 28]
38 | CC(C)(CC(=O)Nc1scc(-c2cccs2)c1C(=O)O)CC(=O)Nc1scc(-c2cccs2)c1C(=O)O [Compound 22]
33 | O=C(O)c1cc(C(=O)O)c(C(=O)O)cc1C(=O)O [Compound 24]

SMILES | Inhibition [%] of GCPII activity [%]
O=C(O)c1ccc(CN2CC(C(=O)O)CC2=O)cc1 (centres unmarked) [Compound 45] | 1

Same assay, conditions: compound at 20 μM; 100 nM fluorescein-labeled Glu-Glu dipeptide substrate; read-out: Inhibition [%] of GCPII activity

SMILES | inhibition at 20 µM [%]
O=C(/C=C/c1ccccc1)Oc1cc([S@TB3](=O)(=O)O)cc2cc([S@TB3](=O)(=O)O)ccc12 [Compound 48] | 16
N#Cc1c(NC(=O)c2ccc(C(=O)O)cc2C(=O)O)sc2c1CCCC2 [Compound 15] | 13
Cc1sc(NC(=O)c2cc(C(=O)O)ccc2C(=O)O)c(C#N)c1C [Compound 6] | 4

Results, then the molecule that gave them:

inhibition at 20 µM [%] | SMILES
0 | O=C(O)CCCC(=O)Nc1ccc(C(=O)O)cc1 [Compound 10]
0 | O=C(O)CN[S@TB17](=O)(=O)c1ccc(C(=O)O)cc1 [Compound 19]
24 | Cc1c(C)c(CC(C(=O)O)C(=O)O)c(C)c(C)c1CC(C(=O)O)C(=O)O [Compound 47]
11 | O=C(O)CSc1ncccc1C(=O)O [Compound 23]
3 | O=C(O)CSc1nnnn1-c1ccc(C(=O)O)cc1 [Compound 5]
0 | O=C(O)CCC(=O)Nc1cc(C(=O)O)ccc1Br [Compound 9]
8 | O=C(O)Cn1c(COCc2nc3ccccc3n2CC(=O)O)nc2ccccc21 [Compound 20]
4 | O=C(O)c1ccc(C(=O)Nc2cc(Cl)ccc2Cl)c(C(=O)O)c1 [Compound 40]
> 25 | Nc1cc(N)c(C(=O)O)cc1C(=O)O [Compound 28]
3 | O=C(O)c1ccc(C(=O)NCCc2ccccc2)c(C(=O)O)c1 [Compound 36]
15 | CCCCc1nc(Cl)c(C(=O)O)n1Cc1ccc(-c2ccccc2-c2nnn[nH]2)s1 [Compound 49]
18 | CC(C)(CC(=O)Nc1scc(-c2ccccc2)c1C(=O)O)CC(=O)Nc1scc(-c2ccccc2)c1C(=O)O [Compound 26]
18 | O=C(O)CCN(CCC(=O)O)c1ccc(/C=C/c2ccnc3ccccc23)cc1 [Compound 27]
> 25 | CC(C)(CC(=O)Nc1scc(-c2cccs2)c1C(=O)O)CC(=O)Nc1scc(-c2cccs2)c1C(=O)O [Compound 22]
1 | O=C(O)CSc1nc2ccccc2n1CC(=O)O [Compound 21]
0 | COc1cc(C(=O)O)ccc1O[S@TB17](=O)(=O)c1ccc(F)cc1 [Compound 44]
0 | O=C(O)CN1CCC(C(=O)O)CC1 [Compound 25]
2 | COc1ccc(N(CCC(=O)O)CCC(=O)O)cc1OC [Compound 4]
1 | O=C(O)CN[S@TB17](=O)(=O)c1cccc(C(=O)O)c1 [Compound 32]
1 | O=C(O)c1ccc(C(=O)NCc2ccccc2)c(C(=O)O)c1 [Compound 37]
11 | Cc1sc(NC(=O)CC(C)(C)CC(=O)Nc2sc(C)c(C)c2C(=O)O)c(C(=O)O)c1C [Compound 3]

inhibition at 20 µM [%] | SMILES
0 | O=C(O)c1cccc(NC(=O)[C@H]2CC=CC[C@H]2C(=O)O)c1 [Compound 11]
0 | O=C(O)c1ccccc1CN[C@@H](Cc1c[nH]c2ccccc12)C(=O)O [Compound 14]
0 | COc1ccc(OC)c(NC(=O)c2ccc(C(=O)O)cc2C(=O)O)c1 [Compound 12]
0 | O=C(O)c1ccc(C(=O)Nc2ccc(Oc3ccccc3)cc2)c(C(=O)O)c1 [Compound 41]
> 25 | O=C(O)c1cc(C(=O)O)c(C(=O)O)cc1C(=O)O [Compound 24]
0 | CC(=O)c1ccc(NC(=O)c2ccc(C(=O)O)cc2C(=O)O)cc1 [Compound 38]
1 | COc1ccc([C@H](C)NC(=O)c2cc(C(=O)O)ccc2C(=O)O)cc1 [Compound 8]
0 | O=C(O)CNc1ccc(C(=O)O)cc1 [Compound 33]
0 | O=C(O)c1ccc(NC(=O)c2ccccc2C(=O)O)cc1O [Compound 2]
10 | CCCCc1ccc(NC(=O)c2ccc(C(=O)O)cc2C(=O)O)cc1 [Compound 39]
0 | O=C(O)CCNC(=O)C(F)(F)C(F)(F)C(=O)NCCC(=O)O [Compound 1]
12 | O=C(O)CCN(CCC(=O)O)c1ccccc1O [Compound 7]
0 | O=C(NCCCCCCNC(=O)[C@H]1CCCC[C@H]1C(=O)O)[C@H]1CCCC[C@H]1C(=O)O [Compound 30]
0 | Cc1cc(-c2ccc(NC(=O)CCC(=O)O)c(C)c2)ccc1NC(=O)CCC(=O)O [Compound 29]
0 | COc1ccc(Cl)cc1NC(=O)c1ccc(C(=O)O)cc1C(=O)O [Compound 13]
8 | O=C(O)c1ccc(CNCc2ccccc2C(=O)O)cc1 [Compound 31]
2 | O=C(O)c1ccccc1NC(=O)[C@@H](O)[C@H](O)C(=O)O [Compound 34]
1 | COc1ccc([S@TB4](=O)(=O)Oc2ccc(C(=O)O)cc2)cc1 [Compound 42]
1 | O=C(O)CCCC(=O)Nc1cccc(C(=O)O)c1 [Compound 35]
0 | CCOc1ccc(NC(=O)c2cc(C(=O)O)ccc2C(=O)O)cc1 [Compound 16]

Same assay, conditions: read-out: Inhibition [%] of GCPII activity

SMILES | inhibition at 20 µM [%]
O=[N+]([O-])c1ccc([S@TB4](=O)(=O)Oc2ccc(O[S@TB17](=O)(=O)c3ccc([N+](=O)[O-])cc3)c(Br)c2)cc1 [Compound 50] | 1
O=[N+]([O-])c1ccc([S@TB4](=O)(=O)Oc2cccc(O[S@TB17](=O)(=O)c3ccc([N+](=O)[O-])cc3)c2)cc1 [Compound 43] | 1

System: GCPII
Assay: not given
Settings: dataset of 54 GCPII ligands compiled from the PDB; read-out: IC50[nM] (54 actives, PDB ID); cited from earlier work

SMILES | IC50 [nM]
O=C(O)CC[C@H](N[P@](=O)(O)OCCNC(=O)c1ccccc1)C(=O)O [Compound 4P4D] | 1800
O=C(O)CC[C@H](N[P@](=O)(O)OCCCCc1ccccc1)C(=O)O [Compound 4P4E] | 180
O=C(O)CC[C@H](N[P@](=O)(O)OC[C@@H](NC(=O)c1ccccc1)C(=O)O)C(=O)O [Compound 4P4J] | 700
CN(Cc1cnc2nc(N)nc(N)c2n1)c1ccc(C(=O)N[C@H](CC[P@@](=O)(O)C[C@@H](CCC(=O)O)C(=O)O)C(=O)O)cc1 [Compound 3BI1, (2S)-2-{[(R)-[(3R)-3-carboxy-3-{[(4-{[(2,4-diaminopteridin-6-yl)methyl](methyl)amino}phenyl)carbonyl]amino}propyl](hydroxy)phosphoryl]methyl}pentanedioic acid] | 0.12
O=C(O)CC[C@H](NC(=O)N[C@@H](CCCCn1cc(COCCOCCNc2ccc([N+](=O)[O-])cc2[N+](=O)[O-])nn1)C(=O)O)C(=O)O [Compound 2XEI] | 0.54
N[C@@H](CC[P@](=O)(O)C[C@@H](CCC(=O)O)C(=O)O)C(=O)O [Compound 3BI0] | 14
O=C(O)CC[C@H](NC(=O)N[C@@H](CSCc1ccc(F)cc1)C(=O)O)C(=O)O [Compound 3D7D] | 14
O=C(O)CC[C@H](N[P@](=O)(O)OCc1ccc(-c2ccccc2)cc1)C(=O)O [Compound 4P4F] | 168
N[C@@H](Cn1oc(=O)[nH]c1=O)C(=O)O [Compound 2JBK] | 9500
O=C(O)CC[C@H](NC(=O)N[C@@H](CCCC(=O)N(CCNC(=O)c1ccc(F)nc1)c1ccccc1)C(=O)O)C(=O)O [RNA 2-49-1] | 0.075
CSC[C@H](NC(=O)N[C@@H](CCC(=O)O)C(=O)O)C(=O)O [Compound 3D7G] | 17
O=C(CC[C@H](Cc1ccc(C(=O)O)cc1)C(=O)O)NO [Compound 5ELY] | 44

Same assay, conditions: dataset of 54 GCPII ligands compiled from the PDB; read-out: Ki[nM] (54 actives, PDB ID); cited from earlier work

SMILES | Ki [nM]
C#CC[C@H](NC(=O)N[C@@H](CCCCNC(=O)c1ccc(I)cc1)C(=O)O)C(=O)O [Compound 4OC2] | 5.3
O=C(N[C@@H](CCCCNC(=O)c1ccc(I)cc1)C(=O)O)N[C@@H](Cc1ccco1)C(=O)O [Compound 4OC3] | 5.3
CC(=O)N(CCCC[C@H](NC(=O)N[C@@H](CCC(=O)O)C(=O)O)C(=O)O)Cc1ccc(Br)cc1 [Compound 4NGM] | 0.0449
O=CNCCCC[C@H](NC(=O)N[C@@H](CCC(=O)O)C(=O)O)C(=O)O [Compound 4NGN] | 0.268
O=C(N[C@@H](CCCCNC(=O)c1ccc(I)cc1)C(=O)O)N[C@@H](Cc1ccncc1)C(=O)O [Compound 4OC4] | 105

Same assay, conditions: listed by ChEMBL ID or PDB ID; read-out: GCPII IC50 (Fig. S20, inhibitors with subnanomolar activities); cited from earlier work

SMILES | IC50 [nM]
O=C(O)CC[C@H](NP(=O)(O)OC[C@H](NC(=O)CC[C@H](NC(=O)CCCCCNC(=O)c1ccc(-c2c3ccc(=O)cc-3oc3cc(O)ccc23)c(C(=O)O)c1)C(=O)O)C(=O)O)C(=O)O [CHEMBL1921899] | 0.41
CN(Cc1ccc(F)cc1)C(=O)CCC[C@H](NC(=O)N[C@@H](CCC(=O)O)C(=O)O)C(=O)O [CHEMBL4283406] | 0.64
CN(Cc1cccc(F)c1)C(=O)CCC[C@H](NC(=O)N[C@@H](CCC(=O)O)C(=O)O)C(=O)O [CHEMBL4291245] | 0.46
CN(C(=O)CCC[C@H](NC(=O)N[C@@H](CCC(=O)O)C(=O)O)C(=O)O)c1ccc(F)cc1 [CHEMBL4288368] | 0.2
O=C(O)CC[C@H](NP(=O)(O)O)C(=O)O [CHEMBL241779] | 0.86

Same assay, conditions: read-out: GCPII IC50; cited from earlier work

SMILES | IC50 [nM]
O=C(O)CC[C@H](NC(=O)N[C@@H](CCCC(=O)N(CCNC(=O)c1ccc(F)nc1)c1ccccc1)C(=O)O)C(=O)O [RNA 2-49-1] | 0.08
